In patent publication US11125659B2, “Preservative solution for heme protein, and method for stabilizing heme protein” (EIKEN KAGAKU KABUSHIKI KAISHA, priority 2015, dated 2021):

Tested on: hemoglobin
Assay: Residual percentage of hemoglobin in buffer solution with additive after storage at 37° C., hemoglobin concentration by latex agglutination immunoassay (OC sensor DIANA)
Design: species or system human
Conditions: for Residual percentage After 6 hours of storage / Residual percentage After 24 hours of storage: 37° C.; for effect of stabilizing hemoglobin (result in words): storage at 37° C., 6 and 24 hours, versus control sample; for residual percentages of hemoglobin after 6 hours of storage and after 24 hours of storage (result in words): stored at a high temperature of 37° C.
Description: A solution (pH7.0) containing 0.3 w/v % bovine serum albumin, NaOH, 0.05 mol/L phosphate buffer solution as a buffer solution, and pure water as the remainder was prepared. 1,2-EDS as an additive was added, to the solution in such an amount as to give each concentration (0.01 to 0.2 mol/L) listed in Table 1, thereby preparing a solution at each concentration. Hemolytic hemoglobin was added to 10 mL of the prepared solutions in such an amount as to give a 600 ng/mL sample.
Immediately after addition of hemoglobin, the hemoglobin concentration (concentration immediately after addition) of each sample was measured. Subsequently, each sample was stored at 37° C. With the time of adding hemoglobin designated as 0 hour of storage, hemoglobin concentration of each sample was measured after 6 hours of storage and after 24 hours of storage (concentration after 6 hours of storage and concentration after 24 hours of storage).
Hemoglobin concentration was measured using an OC sensor DIANA analyzer (Eiken Chemical Co., Ltd) and a dedicated reagent (OC-Hemodia Auto III: Eiken Chemical Co., Ltd) based on the measurement principle, a latex agglutination reaction; that is, a type of immunoassay method. Specifically, 35 μL of the sample was collected and used as a test solution, and then 60 μL of latex (latex solution sensitized with 20 vol % anti-human hemoglobin rabbit polyclonal antibody) and 300 μL of diluent (11.92 mg/mL HEPES) were added to the test solution, followed by measurement of absorbance at a wavelength of 660 nm. Based on a previously produced calibration curve, hemoglobin concentration in the test solution was determined from the thus obtained measurement value. Measurement was performed in triplicate for each sample, the mean value of the measurement results was employed as the hemoglobin concentration of each sample.
From the thus measured hemoglobin concentrations, the residual percentages of hemoglobin were found based on the following formula.
Residual percentage [%] of hemoglobin after 6 hours of storage or after 24 hours of storage=100×hemoglobin concentration [ng/mL] after 6 hours of storage or after 24 hours of storage/concentration [ng/mL] immediately after addition in control sample.
Specifically, the residual percentage of hemoglobin of each sample is a relative value with the hemoglobin concentration (immediately after addition) in a control sample designated as 100%. The control sample in this example was a phosphate buffer solution (containing no 1,2-EDS) containing bovine serum albumin and NaOH, and the concentration immediately after addition in the control sample was 583 ng/mL.
Samples were prepared in a manner similar to Example 1 except that 0.05 mol/L N-(2-hydroxyethyl)piperazine-N′-ethanesulfonic acid (hereinafter, referred to as HEPES) was used instead of a phosphate buffer solution and that 1,2-EDS was added in such an amount as to give each concentration (0.005 to 0.2 mol/L) listed in Table 2, and then hemoglobin concentrations were measured. In addition, the residual percentage of each sample was represented by a relative value with the concentration immediately after addition (576 ng/mL) in a control sample (HEPES buffer solution (containing no 1,2-EDS) containing bovine serum albumin and NaOH) designated as 100%.
Samples were prepared in a manner similar to Example 1 except that 0.05 mol/L HEPES, 0.05 mol/L piperazine-N,N′-bis(2-ethanesulfonic acid) (hereinafter, referred to as PIPES) or 0.05 mol/L 2-morpholinoethanesulfonic acid (hereinafter, referred to as MES) was used instead of a phosphate buffer solution, and that 1,2-EDS was added in such an amount as to give each concentration listed in Table 3, and then hemoglobin concentrations were measured. […]

[1] = HEPES buffer, additive 5 mM, relative to HEPES control (576 ng/mL)
[2] = HEPES buffer, additive 10 mM, relative to HEPES control (576 ng/mL)
[3] = HEPES buffer, additive 20 mM, relative to HEPES control (576 ng/mL)
[4] = HEPES buffer, additive 20 mM, relative to phosphate control (583 ng/mL)
[5] = HEPES buffer, additive 40 mM, relative to HEPES control (576 ng/mL)
[6] = HEPES buffer, additive 60 mM, relative to HEPES control (576 ng/mL)
[7] = HEPES buffer, additive 100 mM, relative to HEPES control (576 ng/mL)
[8] = HEPES buffer, additive 150 mM, relative to HEPES control (576 ng/mL)
[9] = HEPES buffer, additive 200 mM, relative to HEPES control (576 ng/mL)
[10] = MES buffer, additive 20 mM, relative to phosphate control (583 ng/mL)
[11] = PIPES buffer, additive 20 mM, relative to phosphate control (583 ng/mL)
[12] = phosphate buffer pH7.0, additive 10 mM, relative to control immediately after addition (583 ng/mL)
[13] = phosphate buffer, additive 20 mM, relative to control (583 ng/mL)
[14] = phosphate buffer, additive 40 mM, relative to control (583 ng/mL)
[15] = phosphate buffer, additive 60 mM, relative to control (583 ng/mL)
[16] = phosphate buffer, additive 100 mM, relative to control (583 ng/mL)
[17] = phosphate buffer, additive 150 mM, relative to control (583 ng/mL)
[18] = phosphate buffer, additive 200 mM, relative to control (583 ng/mL)
[19] = HEPES buffer, additive 150 mM, relative to phosphate control (548 ng/mL)
[20] = phosphate buffer, additive 50 mM, relative to phosphate control (548 ng/mL)
[21] = phosphate buffer, additive 150 mM, relative to phosphate control (548 ng/mL)

With O=S(=O)(O)CCS(=O)(=O)O [1,2-EDS, 1,2-ethanedisulfonic acid] the “Residual percentage After 6 hours of storage” value [1] was 64.3%, the “Residual percentage After 24 hours of storage” value [1] was 14.0% and the “Residual percentage After 6 hours of storage” value [2] was 65.2%. For the same compound, the “Residual percentage After 24 hours of storage” value [2] was 16.6%, the “Residual percentage After 6 hours of storage” value [3] was 67.1% and the “Residual percentage After 24 hours of storage” value [3] was 18.1%. The “Residual percentage After 6 hours of storage” value [4] was 67.6%, the “Residual percentage After 24 hours of storage” value [4] was 20.2% and the “Residual percentage After 6 hours of storage” value [5] was 68.5%. For the same compound, the “Residual percentage After 24 hours of storage” value [5] was 19.7%, the “Residual percentage After 6 hours of storage” value [6] was 71.3% and the “Residual percentage After 24 hours of storage” value [6] was 20.8%. The “Residual percentage After 6 hours of storage” value [7] was 72.4%, the “Residual percentage After 24 hours of storage” value [7] was 21.6% and the “Residual percentage After 6 hours of storage” value [8] was 72.8%. The “Residual percentage After 24 hours of storage” value [8] was 20.4%, the “Residual percentage After 6 hours of storage” value [9] was 73.1% and the “Residual percentage After 24 hours of storage” value [9] was 21.8%. For the same compound, the “Residual percentage After 6 hours of storage” value [10] was 65.9%, the “Residual percentage After 24 hours of storage” value [10] was 18.7% and the “Residual percentage After 6 hours of storage” value [11] was 63.6%. For the same compound, the “Residual percentage After 24 hours of storage” value [11] was 14.3%, the “Residual percentage After 6 hours of storage” value [12] was 52.5% and the “Residual percentage After 24 hours of storage” value [12] was 7.5%. For the same compound, the “Residual percentage After 6 hours of storage” value [13] was 56.3%, the “Residual percentage After 24 hours of storage” value [13] was 9.0% and the “Residual percentage After 6 hours of storage” value [14] was 61.9%. For the same compound, the “Residual percentage After 24 hours of storage” value [14] was 12.8%, the “Residual percentage After 6 hours of storage” value [15] was 59.7% and the “Residual percentage After 24 hours of storage” value [15] was 12.3%. The “Residual percentage After 6 hours of storage” value [16] was 65.4%, the “Residual percentage After 24 hours of storage” value [16] was 16.6% and the “Residual percentage After 6 hours of storage” value [17] was 71.5%. For the same compound, the “Residual percentage After 24 hours of storage” value [17] was 24.3%, the “Residual percentage After 6 hours of storage” value [18] was 46.2% and the “Residual percentage After 24 hours of storage” value [18] was 7.9%. The “effect of stabilizing hemoglobin (result in words)” value (“effect” for short) was “effect of stabilizing hemoglobin” and the “residual percentages of hemoglobin after 6 hours of storage and after 24 hours of storage (result in words)” value (from here on “residual percentages of hemoglobin”) was “high levels”.
With O=S(=O)(O)CCCCS(=O)(=O)O [1,4-BDS, 1,4-butanedisulfonic acid] the “Residual percentage After 6 hours of storage” value [19] was 74.7%, the “Residual percentage After 24 hours of storage” value [19] was 28.4% and the “Residual percentage After 6 hours of storage” value [20] was 68.3%. For the same compound, the “Residual percentage After 24 hours of storage” value [20] was 14.5%, the “Residual percentage After 6 hours of storage” value [21] was 69.9% and the “Residual percentage After 24 hours of storage” value [21] was 18.4%. For the same compound, the “effect” value was “effect of stabilizing hemoglobin” and the “residual percentages of hemoglobin” value was “high levels”.
O=S(=O)(O)c1ccc2cc(S(=O)(=O)O)ccc2c1 [2,6-NDS, 2,6-naphthalenedisulfonic acid] was tested, and the “Residual percentage After 6 hours of storage” value [20] was 55.7%, the “Residual percentage After 24 hours of storage” value [20] was 11.1% and the “effect” value was “effect of stabilizing hemoglobin”. For the same compound, the “residual percentages of hemoglobin” value was “high levels”.
With O=S(=O)(O)c1cccc2cccc(Nc3ccccc3)c12 [ANS, 8-anilino-1-naphthalenesulfonate, reference compound] the “Residual percentage After 6 hours of storage” value [12] was 2.6% and the “Residual percentage After 24 hours of storage” value [12] was 2.5%.
With O=S(=O)([O-])CCS.[Na+] [MESS, sodium 2-mercaptoethanesulfonate, reference compound] the “Residual percentage After 6 hours of storage” value [12] was 33.4% and the “Residual percentage After 24 hours of storage” value [12] was 3.3%.
For O=S(=O)(O)CCN1CCN(CCS(=O)(=O)O)CC1 [PIPES, piperazine-N,N′-bis(2-ethanesulfonic acid)], the “Residual percentage After 6 hours of storage” value [20] was 58.4%, the “Residual percentage After 24 hours of storage” value [20] was 10.4% and the “effect” value was “effect of stabilizing hemoglobin”.
